Reference: ChEMBL document CHEMBL1201862, “PubChem BioAssay data set” (2004)
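96-well plates; 48 h exposure; 5 concentrations. Endpoints by linear interpolation between flanking doses. Not reached: highest tested concentration assigned. Abbreviation: GI50, concentration required for 50% inhibition of growth.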 Calls of active or inactive are those of the source. Rule as the data show it: active = GI50 up to about 1.1 µM and inactive = higher.

Tests used:
Test in all cases: inhibition of tumour cell growth, NCI panel, 48 h
[1] = tested on: LOX IMVI
[2] = tested on: SNB-75
[3] = tested on: M19-MEL
[4] = tested on: MOLT-4
[5] = tested on: SK-MEL-5
[6] = tested on: DLD-1
[7] = tested on: HCT-116
[8] = tested on: SW-620
[9] = tested on: OVCAR-5
[10] = tested on: SK-MEL-2
[11] = tested on: HCC 2998
[12] = tested on: Malme-3M
[13] = tested on: MCF7
[14] = tested on: BT-549
[15] = tested on: DU-145
[16] = tested on: MDA-MB-435
[17] = tested on: PC-3
[18] = tested on: MDA-N

Row | SMILES | GI50 [1] | GI50 [2] | GI50 [3] | GI50 [4] | GI50 [5] | GI50 [6] | GI50 [7] | GI50 [8] | GI50 [9] | GI50 [10] | GI50 [11] | GI50 [12] | GI50 [13] | GI50 [14] | GI50 [15] | GI50 [16] | GI50 [17] | GI50 [18]
1 | COC(=O)C1CCC(=O)C(Sc2ccccc2)C1 (configuration not stated) | > 100 µM (inactive) | 24.4 µM (inactive) | 62.1 µM (inactive) | 27.6 µM (inactive) | > 100 µM (inactive) | > 100 µM (inactive) | > 100 µM (inactive) | > 100 µM (inactive) | > 100 µM (inactive) |  |  |  |  |  |  |  |  | 
2 | c1ccc(C2N3CCCCC3[C@@H]3c4[nH]c5ccccc5c4CCN23)cc1 (some centres not stated) |  | 57.9 µM (inactive) | 58.2 µM (inactive) | 41.2 µM (inactive) | 67.3 µM (inactive) | 54.1 µM (inactive) | 64 µM (inactive) | 50.4 µM (inactive) | > 100 µM (inactive) | > 100 µM (inactive) | 98.9 µM (inactive) | 27 µM (inactive) |  |  |  |  |  | 
3 | COc1c(CC(C)O)c2c3c(CC(C)O)c(OC)c(=O)c4c(O)cc5c(c6c(cc(O)c(c1=O)c62)OCO5)c43 (configuration not stated) [CERCOSPORIN] | 0.711 µM (active) | 2.38 µM (inactive) | 0.664 µM (active) | 1.75 µM (inactive) | 1.52 µM (inactive) | 1.96 µM (inactive) | 1.39 µM (inactive) | 2.1 µM (inactive) | 2.88 µM (inactive) | 1.55 µM (inactive) |  | 0.374 µM (active) |  |  |  |  |  | 
4 | COc1ccc(C(=O)c2c3cc(OC)c(OC)c(OC)c3cc[n+]2C)cc1 |  | 27.9 µM (inactive) | 24.1 µM (inactive) | 20.5 µM (inactive) | 17.5 µM (inactive) | 17.1 µM (inactive) | 28 µM (inactive) | 34.4 µM (inactive) | > 100 µM (inactive) | 21.1 µM (inactive) | 50.2 µM (inactive) | 35 µM (inactive) |  |  |  |  |  | 
5 | CO/C(=N\N=Cc1ccccc1)c1ccncc1 |  | 31.3 µM (inactive) | > 100 µM (inactive) | > 100 µM (inactive) | > 100 µM (inactive) | > 100 µM (inactive) | > 100 µM (inactive) | > 100 µM (inactive) | > 100 µM (inactive) | > 100 µM (inactive) | > 100 µM (inactive) | > 100 µM (inactive) |  |  |  |  |  | 
6 | N/C(=N\O)N/N=C/c1cc2c(cc1Cl)OCO2 | 31.5 µM (inactive) | 30.1 µM (inactive) | > 56.9 µM (inactive) | 39 µM (inactive) | 24.2 µM (inactive) | 42.8 µM (inactive) | 51.5 µM (inactive) | 41.8 µM (inactive) | 32.5 µM (inactive) | 32.1 µM (inactive) | 26 µM (inactive) | > 100 µM (inactive) | 22.3 µM (inactive) |  |  |  |  | 
7 | Clc1ccc(OC2CCO2)cc1Cl (configuration not stated) |  | > 100 µM (inactive) | > 100 µM (inactive) | 35.3 µM (inactive) | 62.1 µM (inactive) | 85.9 µM (inactive) | 33.8 µM (inactive) | 17.9 µM (inactive) | 83.2 µM (inactive) |  | > 100 µM (inactive) | > 100 µM (inactive) |  |  |  |  |  | 
8 | Cc1c2cc[n+](C)cc2c(C)c2c1[nH]c1ccccc12 | 6.59 µM (inactive) | 0.184 µM (active) | 0.718 µM (active) | 0.861 µM (active) | 1.28 µM (inactive) | 1.65 µM (inactive) | 3.76 µM (inactive) | 0.973 µM (active) | 10.2 µM (inactive) | 1.28 µM (inactive) | 2.28 µM (inactive) | 0.953 µM (active) | 2.44 µM (inactive) | 2.38 µM (inactive) | 0.52 µM (active) | 9.02 µM (inactive) | 4.83 µM (inactive) | 1.92 µM (inactive)
9 | Nc1ccc2cc(S(=O)(=O)O)cc(O)c2c1/N=N/c1ccc(NC(=O)Nc2ccc(/N=N/c3c(N)ccc4cc(S(=O)(=O)O)cc(O)c34)c(S(=O)(=O)O)c2)cc1S(=O)(=O)O | > 100 µM (inactive) | 95.9 µM (inactive) | > 100 µM (inactive) | > 100 µM (inactive) | > 100 µM (inactive) | > 100 µM (inactive) | > 100 µM (inactive) | > 100 µM (inactive) | > 79.6 µM (inactive) | > 100 µM (inactive) | > 100 µM (inactive) | > 100 µM (inactive) | > 100 µM (inactive) |  |  |  |  | 
10 | Cn1nc(-c2ccccc2)c(C(=O)/C=C/c2ccccc2)c(N2CCCC2)c1=O | 15.1 µM (inactive) |  | 16.6 µM (inactive) | 4.39 µM (inactive) | 15.3 µM (inactive) | 12.1 µM (inactive) | 5.94 µM (inactive) | 17.9 µM (inactive) |  |  |  |  |  |  |  |  |  | 
11 | CN(c1ccc(C(=O)c2ccc(N(C)S(C)(=O)=O)cc2)cc1)S(C)(=O)=O |  | 83.6 µM (inactive) | > 100 µM (inactive) | 47 µM (inactive) | 27.9 µM (inactive) | > 100 µM (inactive) | > 100 µM (inactive) | > 100 µM (inactive) | > 100 µM (inactive) | > 100 µM (inactive) |  | > 100 µM (inactive) |  |  |  |  |  | 
12 | CC1(CO)OC(n2cnc3c(N)ncnc32)C(O)C1O (configuration not stated) | > 100 µM (inactive) | 87.3 µM (inactive) | > 100 µM (inactive) | > 100 µM (inactive) | > 100 µM (inactive) | > 100 µM (inactive) | > 100 µM (inactive) | > 100 µM (inactive) | > 100 µM (inactive) | > 100 µM (inactive) | > 100 µM (inactive) | > 100 µM (inactive) |  |  |  |  |  | 
13 | Cc1c2c(cc3c1[nH]c1ccccc13)C(c1ccc(Cl)cc1)=NCC2 | 0.424 µM (active) | 0.217 µM (active) | 0.726 µM (active) | 0.426 µM (active) | 0.343 µM (active) | 0.452 µM (active) | 0.542 µM (active) | 0.356 µM (active) | 7.78 µM (inactive) | 0.711 µM (active) | 0.991 µM (active) | 1.83 µM (inactive) | 0.236 µM (active) |  |  |  |  | 
14 | CCCCCCC1NN(C(C)=O)C(CCCCCC)NN1C(C)=O (configuration not stated) | 19.9 µM (inactive) | > 100 µM (inactive) | > 100 µM (inactive) | > 100 µM (inactive) | > 100 µM (inactive) | 52.1 µM (inactive) | > 100 µM (inactive) | 20.4 µM (inactive) | > 100 µM (inactive) | > 100 µM (inactive) | > 100 µM (inactive) | > 100 µM (inactive) |  |  |  |  |  | 
15 | CCN(CC)CCn1c2ccccc2c(=O)c2c(OC)ccc(OC)c21 | 36.5 µM (inactive) |  | 65 µM (inactive) | 36.8 µM (inactive) |  |  | 37.9 µM (inactive) | 6.59 µM (inactive) | 99.5 µM (inactive) | > 100 µM (inactive) |  | 77.4 µM (inactive) |  |  |  |  |  | 
16 | COc1cc(=O)oc(/C=C/C=O)c1C | 5.2 µM (inactive) | 16.3 µM (inactive) | 18.1 µM (inactive) | 27.5 µM (inactive) | 20.6 µM (inactive) | 16 µM (inactive) | 5.21 µM (inactive) | 19.4 µM (inactive) | 38.3 µM (inactive) |  | 17.9 µM (inactive) | 21.7 µM (inactive) |  |  |  |  |  | 
17 | COc1ccc2c(c1)OC[C@@H]1c3cc(O)c(OCc4ccccc4)cc3O[C@H]21 | 30 µM (inactive) | 14.2 µM (inactive) | 27 µM (inactive) | 29.5 µM (inactive) | 13.1 µM (inactive) | 36.1 µM (inactive) | 29.9 µM (inactive) | 29.6 µM (inactive) | 66.5 µM (inactive) | 17.3 µM (inactive) | 36.2 µM (inactive) | 28.1 µM (inactive) |  |  |  |  |  | 
18 | O=c1[nH]cnc2c(COCCCO)c[nH]c12 | > 100 µM (inactive) | > 100 µM (inactive) | > 100 µM (inactive) | > 100 µM (inactive) | > 100 µM (inactive) | > 100 µM (inactive) | > 100 µM (inactive) | > 100 µM (inactive) | 61.5 µM (inactive) | > 100 µM (inactive) |  | > 100 µM (inactive) |  |  |  |  |  | 
19 | CC1(C)OC2OC(COC(=O)C(c3ccccc3)c3ccccc3)C3OC(C)(C)OC3C2O1 (configuration not stated) | 9.68 µM (inactive) | 17.1 µM (inactive) | 66.7 µM (inactive) | 5.02 µM (inactive) | 7.11 µM (inactive) | 7.98 µM (inactive) | > 10 µM (inactive) | 6.87 µM (inactive) | > 10 µM (inactive) | 46.8 µM (inactive) | > 10 µM (inactive) | 46.8 µM (inactive) |  |  |  |  |  | 
20 | Clc1cc(Cl)cc(C2SCc3nc4ccccc4n32)c1 (configuration not stated) |  | 43.4 µM (inactive) |  | 11.7 µM (inactive) | 12.7 µM (inactive) | > 10 µM (inactive) | > 10 µM (inactive) | 11 µM (inactive) | 18.1 µM (inactive) | 17.6 µM (inactive) | > 10 µM (inactive) | 15.8 µM (inactive) |  |  |  |  |  | 
21 | CCN(CC)CCn1nc2c3c(c(NCCN)ccc31)Sc1cc(O)ccc1-2 | 0.146 µM (active) | 0.813 µM (active) | 0.347 µM (active) | 0.0396 µM (active) | 0.733 µM (active) | 1.25 µM (inactive) | 0.327 µM (active) | 0.351 µM (active) | 1.56 µM (inactive) | 1.28 µM (inactive) |  | 1.07 µM (active) |  |  |  |  |  | 
22 | CC(C)[C@H]1CO[C@@H]2O[C@H](C)CC(=O)N21 |  | > 100 µM (inactive) | > 100 µM (inactive) | > 100 µM (inactive) | > 100 µM (inactive) | > 100 µM (inactive) | > 100 µM (inactive) | > 100 µM (inactive) |  | > 100 µM (inactive) |  | > 100 µM (inactive) |  |  |  |  |  | 
23 | Cc1ccc(S(=O)(=O)OCCOCCOCCOCCOCCOS(=O)(=O)c2ccc(C)cc2)cc1 | 45.2 µM (inactive) | > 100 µM (inactive) | 30.3 µM (inactive) | 14.4 µM (inactive) | 18.4 µM (inactive) | 60.8 µM (inactive) | 52.5 µM (inactive) | 91.2 µM (inactive) | > 100 µM (inactive) | 41.5 µM (inactive) | 41.6 µM (inactive) | 73.6 µM (inactive) |  |  |  |  |  | 
